Test results as given in US10653806B2, “Homomultivalent and heteromultivalent inhibitors of prostate specific membrane antigen (PSMA) and uses thereof” (THE JOHNS HOPKINS UNIVERSITY, priority 2011, dated 2020).

Legend:
PSMA = target: T1, PSMA (Homo sapiens, UniProt Q04609); test: fluorescence-based PSMA inhibition assay (NAAG hydrolysis, LNCaP cell lysates, Amplex Red); type: biochemical; settings: for Ki: PSMA inhibitory activity, Cheng-Prusoff conversion
T1 construct: endogenous in cells; host or cells: LNCaP cell lysate
T1 sequence (Q04609 whole entry): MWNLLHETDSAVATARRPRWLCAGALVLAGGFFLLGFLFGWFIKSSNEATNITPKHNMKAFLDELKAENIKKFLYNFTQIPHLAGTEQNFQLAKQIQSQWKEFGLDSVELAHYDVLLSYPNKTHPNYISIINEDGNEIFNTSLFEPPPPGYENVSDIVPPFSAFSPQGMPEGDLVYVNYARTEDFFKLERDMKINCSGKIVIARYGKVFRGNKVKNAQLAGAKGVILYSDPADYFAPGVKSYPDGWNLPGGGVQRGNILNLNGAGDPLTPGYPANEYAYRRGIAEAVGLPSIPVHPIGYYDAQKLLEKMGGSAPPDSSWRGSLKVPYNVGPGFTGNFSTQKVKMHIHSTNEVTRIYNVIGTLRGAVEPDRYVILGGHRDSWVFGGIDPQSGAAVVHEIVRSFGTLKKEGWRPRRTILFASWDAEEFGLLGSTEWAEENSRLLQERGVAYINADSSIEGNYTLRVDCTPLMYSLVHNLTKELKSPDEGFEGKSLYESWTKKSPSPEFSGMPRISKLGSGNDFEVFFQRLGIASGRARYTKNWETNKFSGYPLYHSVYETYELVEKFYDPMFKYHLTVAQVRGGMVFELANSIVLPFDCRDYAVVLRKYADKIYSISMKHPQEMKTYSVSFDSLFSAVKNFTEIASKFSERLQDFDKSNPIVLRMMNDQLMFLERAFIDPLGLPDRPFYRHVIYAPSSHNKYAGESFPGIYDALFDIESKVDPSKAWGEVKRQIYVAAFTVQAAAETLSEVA

[1] = test system: PSMA+PIP and PSMA-flu tumors in a male SCID mouse; settings: 44.4 MBq (1.2 mCi) intravenously, imaged repeatedly over an eight day period

Ki (PSMA)	increase in binding affinity (Ki) compared to monovalent 1 (PSMA; relative to compound 1)	Structure (SMILES)	radiotracer uptake on SPECT-CT [1]
0.1 nM	5 fold	NCCCCC(NC(=O)C(CCCCNC(=O)c1cn(CCCCC(NC(=O)CCCCCCC(=O)NCCCC[C@H](NC(=O)NC(CCC(=O)O)C(=O)O)C(=O)O)C(=O)O)nn1)NC(=O)c1nn[nH]c1CCCCC(NC(=O)CCCCCCC(=O)NCCCC[C@H](NC(=O)NC(CCC(=O)O)C(=O)O)C(=O)O)C(=O)O)C(=O)O (stereo partly drawn) [Compound 2, (7S)-26-(4-((1-((5-amino-1-carboxypenty 1)amino)-1-oxo-6-(1-((7S)-1,3,7,22-tetracarboxy-5,13,20-trioxo-4,6,12,21-tetraazahexacosan-26-yl) 1H-1,2,3-triazole-4-carboxamido)hexan-2-yl)carbamoyl)-1H-1,2,3-triazol-5-yl)-5,13,20-trioxo-4,6,12,21-tetraazahexacosane-1,3,7,22-tetracarboxylic acid]	
0.08 nM		O=C(O)CCC(NC(=O)N[C@@H](CCCCNC(=O)CCCCCCC(=O)NC(CCCCc1[nH]nnc1C(=O)NC(CCCCNC(=O)c1cn(CCCCC(NC(=O)CCCCCCC(=O)NCCCC[C@H](NC(=O)NC(CCC(=O)O)C(=O)O)C(=O)O)C(=O)O)nn1)C(=O)NC(CCCCNC(=O)CN1CCN(CC(=O)O)CCN(CC(=O)O)CCN(CC(=O)O)CC1)C(=O)O)C(=O)O)C(=O)O)C(=O)O (stereo partly drawn) [Compound 3, (7S)-26-(4-((1-((1-carboxy-5-(2-(4,7,10-tris(carboxymethyl)-1,4,7,10-tetraazacyclododecan-1-yl)acetamido)pentyl)amino)-1-oxo-6-(1-((7 S)-1,3,7,22-tetracarboxy-5,13,20-trioxo-4,6,12,21-tetraazahexacosan-26-yl)-1H-1,2,3-triazole-4-carboxamido)hexan-2-yl)carbamoyl)-1H-1,2,3-triazol-5-yl)-5,13,20-trioxo-4,6,12,21-tetraazahexacosane-1,3,7,22-tetracarboxylic acid]	
		O=C(O)CC[C@H](NC(=O)N[C@@H](CCCCNC(=O)CCCCCCC(=O)NC(CCCCn1cc(C(=O)NCCCCC(NC(=O)c2cn(CCCCC(NC(=O)CCCCCCC(=O)NCCCC[C@H](NC(=O)N[C@@H](CCC(=O)O)C(=O)O)C(=O)O)C(=O)O)nn2)C(=O)NC(CCCCNC(=O)CN2CCN(CC(=O)O)CCN(CC(=O)O)CCN(CC(=O)O)CC2)C(=O)O)nn1)C(=O)O)C(=O)O)C(=O)O.[111In+3] (stereo partly shown) [[^111In]3]	Intense radiotracer uptake was seen only in the PSMA+PIP tumors and in the kidneys
